# Reference: ChEMBL document CHEMBL3507680, “University of Dundee, Gates Library screen for HepG2 cell viability”
# Assay: Human HepG2 cell viability assay in 384 well format
# Type: toxicity, cell-based
# Set-up: dose 125 nL, time 70.5 hour; cytotoxicity at 70.5 h: concentration not given beside the values
# Conditions: HepG2 cells, read-out: Inhibition
row,SMILES,cytotoxicity at 70.5 h
1,CCC(C(=O)N(Cc1ccccc1OC)C1CC1)n1cccn1 (stereo unspecified),-10.3%
2,CC(C)CS(=O)(=O)N1C[C@H]2C[C@H](C(=O)N(C)C)[C@@H](C1)O2,-1.1%
3,COC(=O)Nc1cccc(C(=O)N(C)Cc2cccc(O)c2)c1,-6.41%
4,COCCN1CCCC1c1ccnc(-c2ccccc2)n1 (stereo unspecified),-4.49%
5,CC(=O)N1CC2C[C@]2(NC(=O)c2ccco2)C1 (stereo partly specified),18.4%
6,FC(F)Sc1ccc(NCc2nnc(C3CC3)o2)cc1,-4.17%
7,CO[C@H]1CN(C)S(=O)(=O)[C@@]12CCN(Cc1ccccc1)C2,-3.43%
8,CN(CCO)C1CCN(c2ncc3c(n2)CCN3c2ccccc2)CC1,-3%
9,Cc1csc(C2CCCN(C(=O)c3cc(Cl)c[nH]3)C2)n1 (stereo unspecified),-0.903%
10,CCc1nc(CNC2CCCc3c2cnn3CC)cs1 (stereo unspecified),6.14%
11,CN(C)C[C@H]1OC[C@@H]2CCN(C(=O)c3cccn3C)C[C@@H]21,-7.55%
12,NC(=O)CN(Cc1ncc(-c2ccc(F)cc2)o1)C1CCCC1,-14.2%
13,CS(=O)(=O)Cc1nc(CN2CCOc3ccccc3C2)cs1,-6.97%
14,COC(=O)c1cccn1C1CCN(C(=O)c2ccc(C)[nH]c2=O)CC1,-5.32%
15,CCn1nc(CC(C)C)cc1C(=O)NCCS(=O)(=O)N(C)C,3.89%
16,COc1ccccc1CN1C[C@@H]2CN(C(C)=O)CCO[C@@H]2C1,-1.68%
17,Cc1cnc(N2CC3(CCN(C(=O)c4cccnc4)C3)C2)nc1,-4.83%
18,CCNc1ncc(CN2CCOC(Cc3cccc(OC)c3)C2)cn1 (stereo unspecified),-2.81%
19,CNc1cc(C)nc(N2C[C@H](NC(=O)C3CCOCC3)[C@@H](C3CC3)C2)n1,1.67%
20,Cc1cnc(C(=O)N2CCCC(Cn3cc(CC(C)C)nn3)C2)cn1 (stereo unspecified),-8.09%
21,CC(C)(C)c1n[nH]c(C2CN(C(=O)c3cc(Cl)c[nH]3)CCO2)n1 (stereo unspecified),-10.3%
22,O=C(NCC1Cn2nnc(-c3ccncc3)c2CO1)c1ccsc1 (stereo unspecified),1.38%
23,COc1c(CNCc2ccc(S(C)(=O)=O)cc2)c(C)nn1C,0.0381%

row,SMILES,cytotoxicity at 70.5 h
1,Cc1noc(COCC(=O)Nc2cc(C)c(Br)cn2)n1,4.04%
2,O=C(O)c1nnn(-c2ccccc2)c1-c1ccncc1,-30.6%
3,O=C(CCc1ccccc1Cl)NS(=O)(=O)c1ccc2c(c1)OCCO2,-2.93%
4,COCCN(C)C[C@@H]1CN(C(=O)C(C)(C)c2ccccc2)C[C@@H]1CO,12.6%
5,Cc1ccc(=O)n(CC(=O)N2CCCC(c3nc(C)c(C)s3)C2)n1 (stereo unspecified),-5.44%
6,COc1ccccc1C1CCCN1CC(=O)N1CCC(C(N)=O)CC1 (stereo unspecified),22.3%
7,CCCN1C(=O)[C@@H]2[C@@H](CCN2C(=O)COC)N(Cc2cccs2)C1=O,11.5%
8,CCCc1noc(CCCC(=O)N2CCCC(n3ccnc3C)C2)n1 (stereo unspecified),-2.44%
9,Cc1nc(NC(=O)c2ccc(-n3ncc(C#N)c3N)cc2)sc1C,17%
10,CC(C)N1CCO[C@H]2CN(C(=O)c3ccccn3)C[C@H]21,-7.58%
11,CC1CCc2nc(O)c(C(=O)NCc3ccccc3F)cc2C1 (stereo unspecified),7.1%
12,O=C(NCc1ccccn1)c1cc2n(n1)CCNC2,-3.91%
13,COc1cccc(OCc2cc(C(=O)NC[C@H]3CCCN3)n[nH]2)c1,-4.69%
14,Cc1ccc(CN2CCNC(C(=O)NC3CC3)C2)cc1C (stereo unspecified),-10.4%
15,COCc1cccc(NC(C)C(=O)N(C)Cc2cccc(F)c2)c1 (stereo unspecified),-2.97%
16,c1cnc(N2CCC3(CCN(CC4CCOC4)CC3)CC2)nc1 (stereo unspecified),1.98%
17,O=c1ccc(-c2ccccc2F)nn1CN1CCCCCC1,-4.57%
18,CC(=O)N1CCC(c2cc3c(ncn3C)c(-c3cnn(C)c3)n2)CC1,-8.6%
19,Cc1nn(C)c(C)c1CNCc1ccc(N2CCOCC2)nc1,3.85%
20,COCCC(=O)N1CCCC1c1nccnc1Nc1ncccn1 (stereo unspecified),16.8%
21,CCOc1ncnc2c1CCN(S(=O)(=O)CC)CC2,14.3%
22,CS(=O)(=O)NC1CCN(Cc2ccc(OCc3ccccn3)cc2)CC1,-5.51%
23,CCS(=O)(=O)NCCN1CCN(C(C#N)c2ccccc2)CC1 (stereo unspecified),-9.85%

row,SMILES,cytotoxicity at 70.5 h
1,CCCNC(=O)CN1CCOC(c2ccc(Br)cc2)C1 (stereo unspecified),-6.67%
2,c1cnc2c(c1)cc([C@@H]1CCCO1)n2CCN1CCCCC1,0.422%
3,c1cncc(N2CCCn3nnc(COCC4CC4)c3C2)c1,-7.98%
4,NC(=O)c1ccc(C2CCCN2C(=O)Cn2nc3ccccc3n2)s1 (stereo unspecified),8.36%
5,CC1CCN(CCNC(=O)Nc2ccc(F)cc2Cl)CC1,9.06%
6,Cc1cc(C(=O)N2CCCC(c3cc(=O)nc4n3CCC4)C2)on1 (stereo unspecified),-6.58%
7,CCC1(CC)Cc2ccccc2-c2nc(NCCCO)[nH]c(=O)c21,-14.8%
8,CCN(CC)CCn1cc(NC(=O)CNc2ccccc2OC)cn1,7.01%
9,Cc1noc(C)c1C(=O)N1C[C@@H]2CCCO[C@@H]2[C@H](N(C)C)C1,-8.14%
10,Cc1nc(C(=O)N(C)CC2CC2)nn1-c1ccccc1C(C)C,36%
11,CCOC(=O)N1CCN(C(=O)c2cc(OCC)c3ccoc3c2)CC1,50%
12,O=C(Cc1ccc(F)cc1)NCCNCC1CNc2ccnn2C1 (stereo unspecified),16.6%
13,O=C(O)c1cnc(N2CCC(O)CC2)nc1COc1ccc(F)cc1,-21.6%
14,CCCOCCN1CCC2(CC1)CC(=O)N(Cc1cc(F)cc(F)c1)C2,-3.73%
15,O=C1Nc2ccccc2CN(CC2CC2)C12CCNC2 (stereo unspecified),-3.48%
16,CCCN1C(=O)[C@H]2CC[C@@H]1CN(S(=O)(=O)c1cccc(Cl)c1)C2,-9.33%
17,CN1C(=O)C(C)(C)COc2ccc(NS(=O)(=O)Cc3ccccc3)cc21,5.22%
18,CCCS(=O)(=O)N1CC[C@H]2O[C@@H](c3nc(C)no3)CC[C@H]21,-21.7%
19,CN(C)c1nc(N)nc(CN2CCCC(c3ccccc3)CC2)n1 (stereo unspecified),-3.13%
20,Cc1cc(C)n(CC2CCCN2CCCS(=O)(=O)N(C)C)n1 (stereo unspecified),-9.4%
21,Cc1oncc1C(=O)N1C[C@H]2CCCC(N(C)Cc3cccs3)[C@H]2C1 (stereo partly specified),-8.63%
22,CCc1nccn1-c1cncc(C2CCCN2CC(=O)N2CCCC2)n1 (stereo unspecified),-3.79%
23,NC(=O)Cn1cc(NC(=O)N2CCCC(O)C2)cn1 (stereo unspecified),-4.87%

row,SMILES,cytotoxicity at 70.5 h
1,CC(=O)c1cnc(NCCN2CCCC2)nc1C,-0.135%
2,CCn1nc(C)c(S(=O)(=O)Nc2ccccc2C(=O)OC)c1C,11.2%
3,Cc1nnc2n1CCN(C(=O)C1CCC(n3cccc3)CC1)C2 (stereo unspecified),-8.85%
4,Cn1cc(CNC(=O)c2cc3c(s2)CCCCC3)cn1,-3.43%
5,Cc1ccc(C2CSCCN2C(=O)c2ccc(C(N)=O)cc2)o1 (stereo unspecified),-9.63%
6,Cc1ccc2c(n1)N(CCN(C)C)CCN(C(=O)N1CCOCC1)C2,-3.39%
7,O=C(Nc1nc[nH]n1)c1cc(-c2ccc(F)cc2)n[nH]1,-14.4%
8,CNC(=O)[C@H]1C[C@@H]2CCN(c3nnc(C)s3)C[C@@H]2O1,-8.39%
9,CCN1CC2(CC1=O)CN(C(C)=O)CCN(C(=O)c1ccco1)C2 (stereo unspecified),-9.45%
10,Cc1nc(N2CCCC2)nc2c1CCN(C(=O)CN(C)C)CC2,-3.18%
11,Cc1cc(C(=O)N2CCCN(Cc3cnn(C)c3)CC2)no1,-3.47%
12,N#CC(NC(=O)CC1CCSCC1)c1cnn(-c2ccccc2)c1 (stereo unspecified),-3.51%
13,Cc1ccc(NC(=O)N2CCN(Cc3noc(C4CC4)n3)CC2)cc1,27.4%
14,Cc1cc(NC(=O)N2CCN(c3cccs3)CC2)ccc1C(N)=O,8.16%
15,O=C(NCCc1coc(-c2ccc(F)cc2)n1)NC1CCC(O)CC1 (stereo unspecified),27.6%
16,O=C(CCC1CC1)N1CCC(n2cc(C3(O)CCCC3)nn2)CC1,24.3%
17,Cc1cccc(CN2C[C@@H](CN3CCCN(C)CC3)[C@@H](CO)C2)n1,26.4%
18,CC(C)(NS(C)(=O)=O)C(=O)NCc1cccc(Br)c1,-7.07%
19,CC(O)(CCc1ccccc1)CNC(=O)c1ccsc1 (stereo unspecified),-2.72%
20,COc1nccnc1N1CCN(Cc2cccc(F)c2)C(=O)C1,16.1%
21,CCS(=O)(=O)N1CCC2(CC1)CC[C@@]1(C(=O)NC)CN(C(C)=O)C[C@@H]21,11%
22,CCc1nnc(C2Cc3ccccc3CN2Cc2nc(C3CC3)no2)o1 (stereo unspecified),-5.61%
23,CN(Cc1ccc(F)cc1)CC1(O)CCN(C(=O)c2ccncc2)C1 (stereo unspecified),-5.43%

row,SMILES,cytotoxicity at 70.5 h
1,CCOCC1CCCN(C(=O)NCc2cn3c(C)cccc3n2)C1 (stereo unspecified),9.89%
2,Cc1noc(C)c1CN(C)C(=O)Cn1c(=O)n(C)c2ccccc21,-15.9%
3,CN(C)C(=O)CO[C@H]1COCCN(C2CCOCC2)C1,-4.86%
4,O=C(Nc1ccccc1)[C@H]1C[C@@H]2CN(Cc3cccnc3)C[C@H]1O2,-5.98%
5,O=C(Cc1csc(-c2ccsc2)n1)N1CCN(c2cnccn2)CC1,-10.1%
6,COC(=O)c1ccc2nc(CO[C@H]3CN(CC4CC4)C[C@H]3F)[nH]c2c1,1.07%
7,Nc1cc(N2CCCC2c2cnccn2)ncn1 (stereo unspecified),-7.75%
8,Cn1cc(CN2CCC3(CC2)CN(C(=O)c2cnccn2)CCO3)cn1,-4.88%
9,Cc1ccc(N2CC[C@@H]3CN(Cc4cccc(C)n4)C[C@@H]3C2)nn1,-4.34%
10,CN1CCN(c2ncnc3c2CCN(S(=O)(=O)C2CC2)CC3)CC1,-11.6%
11,Cc1cc(C(=O)N(C)Cc2cccs2)nc(N2CCOCC2)n1,-0.782%
12,CCc1nnsc1C(=O)NC1CCN(c2ccccn2)CC1,11.2%
13,CNS(=O)(=O)c1cc(C)c2[nH]c(=O)cc(C)c2c1,-16.4%
14,O=C(CCc1cc(Cl)no1)N1CCC(c2cc3ncccc3cn2)CC1,0.563%
15,COCCC1(CO)CCCN(CCCc2ccccc2)C1 (stereo unspecified),22.6%
16,O=C(NCCCN1CCOCC1)c1ccc(Cl)cc1Cl,2.42%
17,COc1cc(C(=O)N2CCCC(CNS(C)(=O)=O)C2)cc(OC)c1C (stereo unspecified),-13.5%
18,OC1(CN2CCCC2)COCCN(c2nccs2)C1 (stereo unspecified),37.8%
19,COC(=O)CCCn1ccnc1C(C)c1ccccc1 (stereo unspecified),-1.4%
